Assay results taken from ChEMBL document CHEMBL3779859, “Synergistic activity of a short lipidated antimicrobial peptide (lipoAMP) and colistin or tobramycin against Pseudomonas aeruginosa from cystic fibrosis patients” (Medchemcomm, 2016).
Converted amounts (≈) assume the structure as drawn. The source made the active and inactive calls. No cut-off for these calls is given here. Peptide text beside a SMILES is read from it. * marks the point of attachment. Decanoyl = CCCCCCCCCC(=O)*

Columns and labels:
Pseudomonas aeruginosa [1] = test: Antibacterial activity against Pseudomonas aeruginosa KD491 clinical isolate after 18 to 22 hrs by checkerboard method in presence of colistin; assay type: functional
Pseudomonas aeruginosa [2] = test: Antibacterial activity against Pseudomonas aeruginosa LESB58 clinical isolate after 18 to 22 hrs by checkerboard method in presence of tobramycin; assay type: functional
Pseudomonas aeruginosa [3] = test: Antibacterial activity against Pseudomonas aeruginosa Clone C clinical isolate after 18 to 22 hrs by checkerboard method in presence of tobramycin; assay type: functional
Pseudomonas aeruginosa [4] = test: Antibacterial activity against Pseudomonas aeruginosa KD491 clinical isolate assessed as delay in growth at 4 to 8 ug/ml measured every 15 mins by microtiter plate reader method; assay type: functional, organism-based
Pseudomonas aeruginosa [5] = test: Antibacterial activity against Pseudomonas aeruginosa LESB58 clinical isolate assessed as delay in growth at 4 to 32 ug/ml measured every 15 mins by microtiter plate reader method; assay type: functional, organism-based
Pseudomonas aeruginosa [6] = test: Antibacterial activity against Pseudomonas aeruginosa PAO1 clinical isolate assessed as growth inhibition at 4 ug/ml measured every 15 mins by microtiter plate reader method in presence of 1 ug/ml colistin; assay type: functional, organism-based
Pseudomonas aeruginosa [7] = test: Antibacterial activity against Pseudomonas aeruginosa PAO1 clinical isolate assessed as growth inhibition at 32 ug/ml measured every 15 mins by microtiter plate reader method in presence of […] ug/ml tobramycin; assay type: functional, organism-based
Pseudomonas aeruginosa [8] = test: Antibacterial activity against Pseudomonas aeruginosa Clone C clinical isolate assessed as growth inhibition at 16 ug/ml measured every 15 mins by microtiter plate reader method in presence of […] ug/ml tobramycin; assay type: functional, organism-based
Pseudomonas aeruginosa [9] = test: Antibacterial activity against Pseudomonas aeruginosa KD491 clinical isolate assessed as inhibition of biofilm formation at 32 ug/ml after 18 to 22 hrs by crystal violet staining-based polystyrene microtiter plate reader method; assay type: functional
Pseudomonas aeruginosa [10] = test: Antibacterial activity against Pseudomonas aeruginosa KD491 clinical isolate assessed as inhibition of biofilm formation at 4 ug/ml after 18 to 22 hrs by crystal violet staining-based polystyrene microtiter plate reader method; assay type: functional
Pseudomonas aeruginosa [11] = test: Toxicity in Pseudomonas aeruginosa KD491 clinical isolate assessed as inhibition of planktonic cell growth at 2 to 4 ug/ml after 18 to 22 hrs by microtiter plate reader method; assay type: organism-based; conditions: in vivo
Pseudomonas aeruginosa [12] = test: Antibacterial activity against Pseudomonas aeruginosa PAO1 clinical isolate assessed as inhibition of biofilm formation at 32 ug/ml after 18 to 22 hrs by crystal violet staining-based polystyrene microtiter plate reader method in presence of 2 ug/ml colistin; assay type: functional
Pseudomonas aeruginosa [13] = test: Antibacterial activity against Pseudomonas aeruginosa PAO1 clinical isolate assessed as inhibition of biofilm formation at 4 ug/ml after 18 to 22 hrs by crystal violet staining-based polystyrene microtiter plate reader method in presence of 0.5 ug/ml colistin; assay type: functional, organism-based
[14] = Hemolytic activity in erythrocytes (unknown origin) at 32 ug/ml; assay type: ADME, cell-based, Erythrocyte; conditions: read-out: Activity
Pseudomonas aeruginosa [15] = test: Antibacterial activity against Pseudomonas aeruginosa VW1633 clinical isolate after 16 to 20 hrs by microdilution assay; assay type: functional
Pseudomonas aeruginosa [16] = test: Antibacterial activity against Pseudomonas aeruginosa KD491 clinical isolate assessed as inhibition of biofilm formation at 8 ug/ml after 24 hrs by propidium iodide staining-based confocal laser microscopy; assay type: functional, organism-based
Pseudomonas aeruginosa [17] = test: Antibacterial activity against Pseudomonas aeruginosa D599 clinical isolate after 16 to 20 hrs by microdilution assay; assay type: functional
Pseudomonas aeruginosa [18] = test: Antibacterial activity against Pseudomonas aeruginosa PAO1 clinical isolate after 16 to 20 hrs by microdilution assay; assay type: functional
Pseudomonas aeruginosa [19] = test: Antibacterial activity against Pseudomonas aeruginosa VW1501 clinical isolate after 16 to 20 hrs by microdilution assay; assay type: functional
Pseudomonas aeruginosa [20] = test: Antibacterial activity against Pseudomonas aeruginosa KD491 clinical isolate assessed as delay in growth rate in exponential phase of bacterial growth curve at 4 to 8 ug/ml measured every 15 mins by microtiter plate reader method; assay type: functional, organism-based
Pseudomonas aeruginosa [21] = test: Antibacterial activity against Pseudomonas aeruginosa VW1538 clinical isolate after 16 to 20 hrs by microdilution assay; assay type: functional
Pseudomonas aeruginosa [22] = test: Antibacterial activity against Pseudomonas aeruginosa LES400 clinical isolate after 16 to 20 hrs by microdilution assay; assay type: functional
Pseudomonas aeruginosa [23] = test: Antibacterial activity against Pseudomonas aeruginosa VW313 clinical isolate after 16 to 20 hrs by microdilution assay; assay type: functional

CCCCCCCCCC(=O)NCCCC[C@H](NC(=O)[C@H](Cc1c[nH]c2ccccc12)NC(=O)[C@H](CCCNC(=N)N)NC(=O)[C@H](Cc1c[nH]c2ccccc12)NC(=O)[C@H](CCCNC(=N)N)NC(=O)[C@H](Cc1c[nH]c2ccccc12)NC(=O)[C@@H](N)CCCNC(=N)N)C(=O)O (H-RWRWRWK(Decanoyl)-OH)
fractional inhibitory concentration index (FICI) (Pseudomonas aeruginosa [1]): 0.2625 | fractional inhibitory concentration index (FICI) (Pseudomonas aeruginosa [2]): 0.5 | fractional inhibitory concentration index (FICI) (Pseudomonas aeruginosa [3]): 0.5 | Activity (Pseudomonas aeruginosa [4]): Active | Activity (Pseudomonas aeruginosa [5]): Active | growth inhibition (GI) (Pseudomonas aeruginosa [6]): Active | growth inhibition (GI) (Pseudomonas aeruginosa [7]): Active | growth inhibition (GI) (Pseudomonas aeruginosa [8]): Active | inhibition at 32 µg/mL (Pseudomonas aeruginosa [9]): 80% | inhibition at 4 µg/mL (Pseudomonas aeruginosa [10]): 52% | Activity (Pseudomonas aeruginosa [11]): Non-toxic | inhibition (INH) (Pseudomonas aeruginosa [12]): 84% | inhibition (Pseudomonas aeruginosa [13]): inactive | hemolysis at 32 ug/ml [14]: < 10% | MIC (Pseudomonas aeruginosa [15]): 16 µg/mL (≈ 12.1 µM) | inhibition (Pseudomonas aeruginosa [16]): inactive | MIC (Pseudomonas aeruginosa [17]): 128 µg/mL (≈ 96.4 µM) | MIC (Pseudomonas aeruginosa [18]): 256 µg/mL (≈ 193 µM) | MIC (Pseudomonas aeruginosa [19]): 128 µg/mL (≈ 96.4 µM) | Activity (Pseudomonas aeruginosa [20]): Active | MIC (Pseudomonas aeruginosa [21]): 64 µg/mL (≈ 48.2 µM) | MIC (Pseudomonas aeruginosa [22]): 64 µg/mL (≈ 48.2 µM) | MIC (Pseudomonas aeruginosa [23]): 32 µg/mL (≈ 24.1 µM)
